How the values were obtained:
[1] = biological target: Receptor-interacting serine/threonine-protein kinase 1 (Homo sapiens) (UniProt Q13546)
[2] = tested on: Serine/threonine-protein kinase B-raf (Homo sapiens), P15056 [V600E]
[3] = biological target: Inhibitor of nuclear factor kappa-B kinase subunit epsilon (Homo sapiens) (UniProt Q14164)
[4] = biological target: Dual specificity tyrosine-phosphorylation-regulated kinase 2 (Homo sapiens) (UniProt Q92630)
[5] = biological target: Cyclin-dependent kinase 4 (Homo sapiens) (UniProt P11802)
Sequence of Cyclin-dependent kinase 4 (Homo sapiens) (P11802 whole entry, canonical isoform): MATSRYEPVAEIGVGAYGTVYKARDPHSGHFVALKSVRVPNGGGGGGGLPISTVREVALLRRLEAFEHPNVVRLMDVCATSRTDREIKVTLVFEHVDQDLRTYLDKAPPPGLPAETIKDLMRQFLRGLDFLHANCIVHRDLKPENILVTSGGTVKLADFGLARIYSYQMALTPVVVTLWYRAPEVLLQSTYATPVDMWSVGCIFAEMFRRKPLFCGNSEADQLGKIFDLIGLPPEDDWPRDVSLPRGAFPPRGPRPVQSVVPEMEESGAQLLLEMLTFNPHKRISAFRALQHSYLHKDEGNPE

[6] = biological target: Phosphatidylinositol 4,5-bisphosphate 3-kinase catalytic subunit delta isoform (Homo sapiens) (UniProt O00329)
[7] = biological target: Serine/threonine-protein kinase MRCK alpha (Homo sapiens) (UniProt Q5VT25)
[8] = biological target: Hormonally up-regulated neu tumor-associated kinase (Homo sapiens) (UniProt P57058)
[9] = biological target: STE20-like serine/threonine-protein kinase (Homo sapiens) (UniProt Q9H2G2)
[10] = biological target: 3-phosphoinositide-dependent protein kinase 1 (Homo sapiens) (UniProt O15530)
[11] = biological target: Serine/threonine-protein kinase BRSK2 (Homo sapiens) (UniProt Q8IWQ3)
[12] = biological target: Phosphatidylinositol 3-kinase C2 domain-containing subunit gamma (Homo sapiens) (UniProt O75747)
[13] = tested on: Epidermal growth factor receptor (Homo sapiens), P00533 [UNDEFINED MUTATION]
Sequence of Epidermal growth factor receptor (Homo sapiens), P00533 [UNDEFINED MUTATION] (P00533 whole entry, looked up, change not shown): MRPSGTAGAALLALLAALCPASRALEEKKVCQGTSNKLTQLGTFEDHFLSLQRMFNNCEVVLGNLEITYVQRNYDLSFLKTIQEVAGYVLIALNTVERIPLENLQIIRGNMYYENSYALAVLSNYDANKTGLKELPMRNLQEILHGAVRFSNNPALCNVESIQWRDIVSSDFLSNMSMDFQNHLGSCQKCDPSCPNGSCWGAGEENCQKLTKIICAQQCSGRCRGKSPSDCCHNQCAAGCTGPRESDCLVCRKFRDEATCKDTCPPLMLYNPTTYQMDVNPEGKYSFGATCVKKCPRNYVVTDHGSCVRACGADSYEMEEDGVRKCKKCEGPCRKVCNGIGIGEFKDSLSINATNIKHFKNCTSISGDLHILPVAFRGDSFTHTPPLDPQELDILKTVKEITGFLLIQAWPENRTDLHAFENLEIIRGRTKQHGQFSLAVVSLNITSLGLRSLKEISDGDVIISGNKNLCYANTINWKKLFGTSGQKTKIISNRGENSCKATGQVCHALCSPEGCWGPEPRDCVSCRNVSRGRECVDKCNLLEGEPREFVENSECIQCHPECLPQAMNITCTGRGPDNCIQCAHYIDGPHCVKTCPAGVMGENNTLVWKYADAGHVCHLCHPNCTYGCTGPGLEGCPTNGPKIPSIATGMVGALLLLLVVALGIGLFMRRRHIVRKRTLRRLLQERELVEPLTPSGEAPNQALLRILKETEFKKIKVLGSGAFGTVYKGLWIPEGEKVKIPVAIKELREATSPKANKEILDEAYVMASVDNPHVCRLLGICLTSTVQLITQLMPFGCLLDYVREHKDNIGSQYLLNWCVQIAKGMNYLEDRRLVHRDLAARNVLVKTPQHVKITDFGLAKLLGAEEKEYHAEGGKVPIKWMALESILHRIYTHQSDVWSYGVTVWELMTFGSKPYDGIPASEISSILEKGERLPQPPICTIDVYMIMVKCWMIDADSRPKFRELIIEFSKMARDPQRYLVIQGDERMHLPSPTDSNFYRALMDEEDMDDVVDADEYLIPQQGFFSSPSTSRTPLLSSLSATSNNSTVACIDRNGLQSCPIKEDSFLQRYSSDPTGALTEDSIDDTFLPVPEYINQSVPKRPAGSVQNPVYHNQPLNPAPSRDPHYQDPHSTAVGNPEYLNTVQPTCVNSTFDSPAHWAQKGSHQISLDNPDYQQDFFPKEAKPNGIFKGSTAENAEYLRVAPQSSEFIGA

[14] = biological target: Myosin light chain kinase 2, skeletal/cardiac muscle (Homo sapiens) (UniProt Q9H1R3)
[15] = biological target: Wee1-like protein kinase 2 (Homo sapiens) (UniProt P0C1S8)
[16] = biological target: 5'-AMP-activated protein kinase catalytic subunit alpha-2 (Homo sapiens) (UniProt P54646)
[17] = tested on: Hepatocyte growth factor receptor (Homo sapiens), P08581 [Y1235D]
[18] = biological target: Serine/threonine-protein kinase PLK2 (Homo sapiens) (UniProt Q9NYY3)
[19] = biological target: Dual specificity protein kinase CLK4 (Homo sapiens) (UniProt Q9HAZ1)
[20] = biological target: Serine/threonine-protein kinase pim-2 (Homo sapiens) (UniProt Q9P1W9)
[21] = biological target: Serine/threonine-protein kinase 35 (Homo sapiens) (UniProt Q8TDR2)
Sequence of Serine/threonine-protein kinase 35 (Homo sapiens) (Q8TDR2 whole entry): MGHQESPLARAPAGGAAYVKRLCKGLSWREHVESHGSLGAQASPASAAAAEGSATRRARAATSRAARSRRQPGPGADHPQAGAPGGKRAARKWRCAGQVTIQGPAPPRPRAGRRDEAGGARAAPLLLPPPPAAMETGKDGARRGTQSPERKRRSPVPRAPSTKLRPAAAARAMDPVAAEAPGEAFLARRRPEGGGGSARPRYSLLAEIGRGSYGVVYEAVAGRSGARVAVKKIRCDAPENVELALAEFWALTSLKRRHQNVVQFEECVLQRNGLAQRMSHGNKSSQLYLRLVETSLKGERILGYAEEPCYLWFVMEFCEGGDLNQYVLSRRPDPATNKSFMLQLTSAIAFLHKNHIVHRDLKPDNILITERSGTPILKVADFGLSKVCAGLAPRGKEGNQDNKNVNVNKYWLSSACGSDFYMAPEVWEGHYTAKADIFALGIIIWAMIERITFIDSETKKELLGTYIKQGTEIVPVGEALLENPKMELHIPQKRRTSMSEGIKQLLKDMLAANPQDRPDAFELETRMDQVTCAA

[22] = biological target: Serine/threonine-protein kinase Chk2 (Homo sapiens) (UniProt O96017)
[23] = biological target: Calcium/calmodulin-dependent protein kinase type II subunit gamma (Homo sapiens) (UniProt Q13555)
[24] = biological target: Alpha-2C adrenergic receptor (Homo sapiens) (UniProt P18825); settings: Compound concentration 10.0 uM
[25] = biological target: Casein kinase I isoform alpha (Homo sapiens) (UniProt P48729)
[26] = biological target: Tyrosine-protein kinase HCK (Homo sapiens) (UniProt P08631)
[27] = biological target: Dual specificity mitogen-activated protein kinase kinase 5 (Homo sapiens) (UniProt Q13163)
[28] = biological target: Phosphatidylinositol 4,5-bisphosphate 3-kinase catalytic subunit gamma isoform (Homo sapiens) (UniProt P48736)
Sequence of Phosphatidylinositol 4,5-bisphosphate 3-kinase catalytic subunit gamma isoform (Homo sapiens) (P48736 whole entry, looked up, canonical isoform): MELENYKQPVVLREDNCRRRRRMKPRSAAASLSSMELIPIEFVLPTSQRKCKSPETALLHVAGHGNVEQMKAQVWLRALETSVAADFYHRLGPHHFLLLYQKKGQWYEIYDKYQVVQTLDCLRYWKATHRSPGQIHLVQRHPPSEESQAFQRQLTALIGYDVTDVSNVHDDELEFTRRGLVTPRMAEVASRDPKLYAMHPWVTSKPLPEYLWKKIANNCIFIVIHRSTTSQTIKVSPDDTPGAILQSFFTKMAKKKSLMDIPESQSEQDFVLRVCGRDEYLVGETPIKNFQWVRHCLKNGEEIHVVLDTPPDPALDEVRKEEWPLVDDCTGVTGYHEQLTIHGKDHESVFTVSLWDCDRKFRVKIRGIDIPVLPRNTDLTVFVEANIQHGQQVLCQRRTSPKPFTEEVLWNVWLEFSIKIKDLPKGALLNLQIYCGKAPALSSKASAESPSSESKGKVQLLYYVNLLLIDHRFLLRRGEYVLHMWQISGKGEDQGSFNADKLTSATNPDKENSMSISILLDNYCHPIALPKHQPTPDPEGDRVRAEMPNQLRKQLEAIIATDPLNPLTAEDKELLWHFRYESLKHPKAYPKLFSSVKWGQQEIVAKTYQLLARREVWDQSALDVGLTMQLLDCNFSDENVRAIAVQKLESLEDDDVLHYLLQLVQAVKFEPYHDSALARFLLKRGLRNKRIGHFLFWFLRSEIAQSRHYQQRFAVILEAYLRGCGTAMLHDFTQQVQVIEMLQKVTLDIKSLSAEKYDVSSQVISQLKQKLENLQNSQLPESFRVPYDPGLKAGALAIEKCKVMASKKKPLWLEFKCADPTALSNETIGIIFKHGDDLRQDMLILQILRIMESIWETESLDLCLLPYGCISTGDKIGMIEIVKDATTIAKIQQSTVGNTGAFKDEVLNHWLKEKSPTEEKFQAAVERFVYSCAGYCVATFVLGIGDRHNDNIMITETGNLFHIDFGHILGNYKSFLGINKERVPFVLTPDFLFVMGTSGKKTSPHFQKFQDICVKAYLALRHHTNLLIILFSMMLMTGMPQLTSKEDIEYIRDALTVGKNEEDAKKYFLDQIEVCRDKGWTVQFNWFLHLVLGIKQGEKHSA

[29] = biological target: Phosphorylase b kinase regulatory subunit alpha, liver isoform (Homo sapiens) (UniProt P46019)
Sequence of Phosphorylase b kinase regulatory subunit alpha, liver isoform (Homo sapiens) (P46019 whole entry, canonical isoform): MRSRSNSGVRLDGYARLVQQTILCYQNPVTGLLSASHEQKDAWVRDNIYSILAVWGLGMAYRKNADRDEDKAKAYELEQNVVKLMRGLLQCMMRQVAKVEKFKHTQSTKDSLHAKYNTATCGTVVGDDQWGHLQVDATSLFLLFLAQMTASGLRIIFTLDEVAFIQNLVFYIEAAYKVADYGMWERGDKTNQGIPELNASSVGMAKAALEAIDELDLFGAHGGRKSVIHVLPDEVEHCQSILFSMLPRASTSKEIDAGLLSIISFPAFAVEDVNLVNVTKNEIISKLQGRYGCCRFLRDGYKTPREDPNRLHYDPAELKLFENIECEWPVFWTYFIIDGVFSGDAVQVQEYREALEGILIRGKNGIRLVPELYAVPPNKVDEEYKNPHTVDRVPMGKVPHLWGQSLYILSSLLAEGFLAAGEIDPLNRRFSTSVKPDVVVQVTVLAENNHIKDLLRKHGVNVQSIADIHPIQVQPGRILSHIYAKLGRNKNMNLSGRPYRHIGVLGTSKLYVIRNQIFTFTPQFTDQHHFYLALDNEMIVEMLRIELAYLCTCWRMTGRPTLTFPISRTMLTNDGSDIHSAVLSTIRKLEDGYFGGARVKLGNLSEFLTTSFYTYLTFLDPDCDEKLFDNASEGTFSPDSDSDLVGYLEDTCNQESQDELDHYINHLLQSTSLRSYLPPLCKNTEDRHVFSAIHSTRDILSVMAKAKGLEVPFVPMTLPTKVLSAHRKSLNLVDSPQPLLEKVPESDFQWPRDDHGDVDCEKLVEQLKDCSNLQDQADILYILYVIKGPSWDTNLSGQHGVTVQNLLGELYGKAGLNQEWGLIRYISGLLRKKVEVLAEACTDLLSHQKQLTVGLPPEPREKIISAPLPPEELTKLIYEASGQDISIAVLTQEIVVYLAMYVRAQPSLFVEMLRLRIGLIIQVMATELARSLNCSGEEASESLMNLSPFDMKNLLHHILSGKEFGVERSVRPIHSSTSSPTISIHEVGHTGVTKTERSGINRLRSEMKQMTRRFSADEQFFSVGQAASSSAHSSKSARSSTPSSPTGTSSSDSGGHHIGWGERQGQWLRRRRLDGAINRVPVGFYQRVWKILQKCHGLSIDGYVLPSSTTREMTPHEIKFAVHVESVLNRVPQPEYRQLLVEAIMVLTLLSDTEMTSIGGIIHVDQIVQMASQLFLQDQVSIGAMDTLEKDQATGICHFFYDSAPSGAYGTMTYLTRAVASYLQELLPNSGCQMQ

[30] = tested on: Phosphatidylinositol 4,5-bisphosphate 3-kinase catalytic subunit alpha isoform (Homo sapiens), P42336 [E545A]
[31] = biological target: Death-associated protein kinase 3 (Homo sapiens) (UniProt O43293)
[32] = tested on: Epidermal growth factor receptor (Homo sapiens), P00533 [UNDEFINED MUTATION]; remark: listed apart in the source
[33] = biological target: Rho-associated protein kinase 2 (Homo sapiens) (UniProt O75116)
[34] = biological target: Myotonin-protein kinase (Homo sapiens) (UniProt Q09013)
Sequence of Myotonin-protein kinase (Homo sapiens) (Q09013 whole entry): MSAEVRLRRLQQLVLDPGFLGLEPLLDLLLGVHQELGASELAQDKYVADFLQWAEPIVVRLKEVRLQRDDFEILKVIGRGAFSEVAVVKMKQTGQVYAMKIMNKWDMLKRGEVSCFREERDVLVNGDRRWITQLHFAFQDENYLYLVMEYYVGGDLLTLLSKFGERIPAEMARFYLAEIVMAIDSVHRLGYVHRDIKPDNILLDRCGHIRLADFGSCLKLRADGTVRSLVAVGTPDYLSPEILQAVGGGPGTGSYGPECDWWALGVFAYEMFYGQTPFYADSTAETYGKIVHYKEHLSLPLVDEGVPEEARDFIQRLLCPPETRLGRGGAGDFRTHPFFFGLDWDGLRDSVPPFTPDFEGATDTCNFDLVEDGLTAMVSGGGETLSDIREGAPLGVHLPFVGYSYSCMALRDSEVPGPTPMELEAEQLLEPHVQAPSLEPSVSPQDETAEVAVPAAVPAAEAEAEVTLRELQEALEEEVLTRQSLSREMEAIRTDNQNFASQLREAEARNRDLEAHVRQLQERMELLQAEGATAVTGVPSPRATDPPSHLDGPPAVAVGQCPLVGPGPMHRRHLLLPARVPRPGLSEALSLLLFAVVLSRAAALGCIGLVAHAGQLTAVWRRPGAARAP

[35] = biological target: Serine/threonine-protein kinase D3 (Homo sapiens) (UniProt O94806)
[36] = biological target: Sodium-dependent noradrenaline transporter (Homo sapiens, UniProt P23975); settings: Compound concentration 10.0 uM
[37] = tested on: Tyrosine-protein kinase ABL1 (Homo sapiens), P00519 [Y253F]
[38] = biological target: cGMP-dependent protein kinase 2 (Homo sapiens) (UniProt Q13237)
[39] = biological target: Alpha-2A adrenergic receptor (Homo sapiens) (UniProt P08913); settings: Compound concentration 10.0 uM
[40] = biological target: Serine/threonine-protein kinase Nek2 (Homo sapiens) (UniProt P51955)
[41] = biological target: Protein kinase C epsilon type (Homo sapiens) (UniProt Q02156)
[42] = biological target: Mitogen-activated protein kinase 11 (Homo sapiens) (UniProt Q15759)
[43] = biological target: Serine/threonine-protein kinase SIK1 (Homo sapiens) (UniProt P57059)
[44] = biological target: Transient receptor potential cation channel subfamily M member 6 (Homo sapiens) (UniProt Q9BX84)
[45] = Compound concentration 1000.0 nM
[46] = Compound concentration 100.0 nM

Cc1cc(NC(=O)c2cccc(S(F)(F)(F)(F)F)c2)cc(-n2ccn3nc(-c4cccnc4)cc23)c1 [BAY-309] was tested, and the residual activity [1, 45] was 80.7%, the residual activity [2, 45] was 24.4% and the residual activity [3, 45] was 100%. It also gave a residual activity [4, 45] of 100%, a residual activity [5, 45] of 79.3% and a residual activity [6, 45] of 100%. It also gave a residual activity [7, 45] of 88.5%, a residual activity [8, 45] of 77.6% and a residual activity [9, 45] of 95.2%. The residual activity [10, 45] was 92%, the residual activity [11, 45] was 100% and the residual activity [12, 45] was 100%. The residual activity [13, 45] was 95.1%, the residual activity [14, 45] was 100% and the residual activity [15, 45] was 100%. It also gave a residual activity [16, 45] of 100%, a residual activity [17, 45] of 100% and a residual activity [18, 45] of 100%. For the same molecule, the residual activity [19, 45] was 100%, the residual activity [20, 45] was 100% and the residual activity [21, 45] was 100%. For the same molecule, the residual activity [22, 45] was 100%, the residual activity [23, 45] was 100% and the inhibition [24] was -5.04%. The residual activity [25, 45] was 50.7%, the residual activity [26, 45] was 98.7% and the residual activity [27, 45] was 35.9%. The residual activity [28, 45] was 100%, the residual activity [29, 45] was 100% and the residual activity [30, 45] was 69.2%. It also gave a residual activity [31, 45] of 100%, a residual activity [32, 45] of 100% and a residual activity [33, 45] of 87.6%. The residual activity [34, 45] was 100%, the residual activity [35, 45] was 100% and the inhibition [36] was 62.9%. For the same molecule, the residual activity [37, 45] was 100%, the residual activity [38, 45] was 100% and the inhibition [39] was 15.8%. It also gave a residual activity [40, 45] of 90.8%, a residual activity [41, 45] of 91.2% and a residual activity [42, 45] of 98.1%. The residual activity [43, 45] was 100% and the residual activity [44, 45] was 97%.
Cc1cc(C)c(-n2ccn3nc(-c4cccnc4)cc23)cc1NC(=O)c1cc(C#N)cc(S(F)(F)(F)(F)F)c1 [BAY-826] gave a residual activity [1, 46] of 91.5%, a residual activity [2, 46] of 100% and a residual activity [3, 46] of 59.9%. It also gave a residual activity [4, 46] of 82.5%, a residual activity [5, 46] of 82.4% and a residual activity [6, 46] of 76.9%. The residual activity [7, 46] was 100%, the residual activity [8, 46] was 83% and the residual activity [9, 46] was 48.5%. For the same molecule, the residual activity [10, 46] was 100%, the residual activity [11, 46] was 97.5% and the residual activity [12, 46] was 60.7%. The residual activity [13, 46] was 85.5%, the residual activity [14, 46] was 100% and the residual activity [15, 46] was 77.4%. For the same molecule, the residual activity [16, 46] was 82.7%, the residual activity [17, 46] was 93.4% and the residual activity [18, 46] was 83.3%. The residual activity [19, 46] was 93.3%, the residual activity [20, 46] was 100% and the residual activity [21, 46] was 92%. The residual activity [22, 46] was 100%, the residual activity [23, 46] was 93.4% and the inhibition [24] was -7.91%. It also gave a residual activity [25, 46] of 67%, a residual activity [26, 46] of 72.1% and a residual activity [27, 46] of 91.8%. The residual activity [28, 46] was 98.5%, the residual activity [29, 46] was 78.3% and the residual activity [30, 46] was 73%. The residual activity [31, 46] was 78.1%, the residual activity [32, 46] was 88.5% and the residual activity [33, 46] was 66.2%. For the same molecule, the residual activity [34, 46] was 95.6%, the residual activity [35, 46] was 97% and the inhibition [36] was 1.95%. The residual activity [37, 46] was 68.6%, the residual activity [38, 46] was 82.7% and the inhibition [39] was 11.1%. It also gave a residual activity [40, 46] of 98.6%, a residual activity [41, 46] of 100% and a residual activity [42, 46] of 93.4%. It also gave a residual activity [43, 46] of 86.3% and a residual activity [44, 46] of 80.2%.
